Source: patent US5039684A, “Tetrazole amide derivatives of heterocyclic alkenyl acid and their use as antiallergic substances” (Valeas S. p. A., priority 1989, dated 1991)
Where a name gives a salt, the structure may show the parent alone.

What was measured:
[1] = test system: passive cutaneous anaphylaxis; assay: PCA test on the rat, intravenous administration just before challenge with antigen; format: in vivo, rat (male Sprague Dawley); conditions: for inhibition in vivo at 0.3 mg/kg / inhibition in vivo at 1 mg/kg / inhibition in vivo at 3 mg/kg / ED50 / inhibition in vivo at 10 mg/kg: Rattus norvegicus, iv; for inhibition in vivo at 0.3 mg/kg / inhibition in vivo at 1 mg/kg: read-out: inhibition (%); for ED50: read-out: ED50 (conf. lim) P = 0.05
Experimental: (§1) The serum, obtained from rats actively sensitized with ovalbumin (antigen) and suitably diluted, was injected intradermically into the shaven back of male Sprague Dawley rats (2 wheals per rat).
(§2) The rats were treated intravenously after 24 hours with a solution of ovalbumin and Evans blue. Thirty minutes later they were killed and the diameter and intensity of the blue ring formed at the site of the intradermic injection were measured.
(§3) For each treated group (5 per group) the % inhibition was then calculated with respect to the control group.
The pharmacological screening was effected by administering the compounds of the present invention intravenously and orally.
(§4) For intravenous administration (2 ml/kg), those compounds in which R1 =H (see formula I) were dissolved in an aqueous 1% NaHCO3 solution whereas for oral administration (4 ml/Kg) they were either suspended in 0.5% carboxymethylcellulose or dissolved in an aqueous 3% NaHCO3 solution.

[2] = test system: passive cutaneous anaphylaxis; assay: PCA test on the rat, oral administration before challenge with antigen; format: in vivo, rat (male Sprague Dawley); conditions: for inhibition in vivo at 3 mg/kg / inhibition in vivo at 10 mg/kg / inhibition in vivo at 30 mg/kg / inhibition in vivo at 0.3 mg/kg / inhibition in vivo at 1 mg/kg / ED50: Rattus norvegicus, po; for inhibition in vivo at 3 mg/kg / inhibition in vivo at 10 mg/kg / inhibition in vivo at 30 mg/kg / inhibition in vivo at 0.3 mg/kg / inhibition in vivo at 1 mg/kg / ED50 / inhibition (%): 5 minutes before challenge; for inhibition in vivo at 3 mg/kg / inhibition in vivo at 10 mg/kg / inhibition in vivo at 30 mg/kg: read-out: inhibition (%); for ED50: 5 min, Table 2, oral administration, read-out: ED50 (conf. lim) P = 0.05; for ED50 OS/ED50 iv: oral 5 minutes before challenge / i.v. immediately before challenge; for inhibition (%): oral
Experimental: The serum, obtained from rats actively sensitized with ovalbumin (antigen) and suitably diluted, was injected intradermically into the shaven back of male Sprague Dawley rats (2 wheals per rat). The rats were treated intravenously after 24 hours with a solution of ovalbumin and Evans blue. Thirty minutes later they were killed and the diameter and intensity of the blue ring formed at the site of the intradermic injection were measured. […] The pharmacological screening was effected by administering the compounds of the present invention intravenously and orally. For intravenous administration (2 ml/kg), those compounds in which R1 =H (see formula I) were dissolved in an aqueous 1% NaHCO3 solution whereas for oral administration (4 ml/Kg) they were either suspended in 0.5% carboxymethylcellulose or dissolved in an aqueous 3% NaHCO3 solution.

[3] = test system: passive cutaneous anaphylaxis; assay: PCA test on the rat, time response curve after oral administration; format: in vivo, rat (male Sprague Dawley); conditions: Rattus norvegicus, oral; for inhibition in vivo at 30 mg/kg: 30 mg/kg/os, read-out: inhibition %; for inhibition in vivo at 1 mg/kg: 1 mg/kg/os; for inhibition in vivo at 3 mg/kg: 3 mg/kg/os; for inhibition in vivo at 10 mg/kg: 10 mg/kg/os
Experimental: as §1, §2, §3, §4

[4] = Acute toxicity in the mouse, oral administration; format: in vivo; conditions: mouse, in vivo, po, 1000 mg/kg, oral, 1000 mg/kg/os; read-out: mortality (%EAD)
Experimental: (§5) Acute toxicity was evaluated in the mouse by administering the compounds orally at scalar doses to a maximum of 1000 mg/kg to evaluate the 50% lethal dose (LD50). The compounds were administered in carboxymethylcellulose (0.5%) in a volume of […] to male mice (Swiss stock) of average weight 20 g.

mouse = assay: Acute toxicity in the mouse, oral administration; format: in vivo
Experimental: as §5

[5] = 1 mg/kg, immediately before challenge
[6] = 3 mg/kg, immediately before challenge
[7] = 5 min, 5 minutes before challenge
[8] = 0.25 h, 15 minutes before challenge
[9] = 0.5 h, 30 minutes before challenge
[10] = 1 h, 60 minutes before challenge
[11] = 2 h, 120 minutes before challenge
[12] = 10 mg/kg, immediately before challenge

Compound	inhibition in vivo at 0.3 mg/kg ([1]; immediately before challenge) [%]	inhibition in vivo at 1 mg/kg [1, 5] [%]	inhibition in vivo at 3 mg/kg [1, 6] [%]	ED50 ([1]; immediately before challenge) [mg/kg]	inhibition in vivo at 3 mg/kg ([2]; 3 mg/kg) [%]	inhibition in vivo at 10 mg/kg ([2]; 10 mg/kg) [%]	inhibition in vivo at 30 mg/kg ([2]; 30 mg/kg) [%]	inhibition in vivo at 30 mg/kg [3, 7] [%]	inhibition in vivo at 30 mg/kg [3, 8] [%]	inhibition in vivo at 30 mg/kg [3, 9] [%]	inhibition in vivo at 30 mg/kg [3, 10] [%]	inhibition in vivo at 30 mg/kg [3, 11] [%]	mortality [4] [%]	No. (dead) (mouse; oral, 1000 mg/kg/os, 8 treated)	inhibition in vivo at 1 mg/kg [2] [%]	ED50 [2] [mg/kg]	ED50 OS/ED50 iv [2]	No. (dead) (mouse; mouse, in vivo, po, 1000 mg/kg)	inhibition in vivo at 10 mg/kg [1, 12] [%]	other results
O=C(/C=C/c1c[nH]c2ccccc12)Nc1nn[nH]n1 [VAL 47-022, N-1H-tetrazol-5-yl-[3-(3-indolyl)]-acrylamide trans isomer]	3.9	43.4	97.1	1.01	17.8	46.6	40.8	62.2	52.7	33.3	19.4	8.9	0	0						
Cc1ccc(/C=C\C(=O)Nc2nn[nH]n2)s1 [VAL 47-005cis, N-1H-tetrazol-5-yl-[3-[5-methyl-(2-thienyl)]]acrylamide cis isomer]	18	54.6	82.9	0.89	94.5								0		51.1	0.78	0.88	0		activity greater than its trans isomer (VAL 47-005) ([1]; i.v., ratio of ED50): about 3 times; inhibition in vivo at 0.3 mg/kg [2]: 23.6%; inhibition in vivo at 1 mg/kg [3, 7]: 52.4%; inhibition in vivo at 1 mg/kg [3, 8]: 27.5%; inhibition in vivo at 1 mg/kg [3, 9]: 20.6%; inhibition in vivo at 1 mg/kg [3, 10]: 19.6%; inhibition in vivo at 1 mg/kg [3, 11]: 2.1%; toxicity (in words) (mouse; oral, mouse): do not determine any toxic effect
Cc1ccc(/C=C\C(=O)Nc2nn[nH]n2)o1 [VAL 47-073cis, N-1H-tetrazol-5-yl-[3-[5-methyl-(2-furyl)]]-acrylamide cis isomer]		6.6	25	5.76	67.2								12.5		42.6	1.26	0.22	1	69.4	inhibition in vivo at 0.3 mg/kg [2]: 25.1%; inhibition in vivo at 3 mg/kg [3, 7]: 50.8%; inhibition in vivo at 3 mg/kg [3, 8]: 66.4%; inhibition in vivo at 3 mg/kg [3, 9]: 17.3%; inhibition in vivo at 3 mg/kg [3, 10]: 5.8%; inhibition in vivo at 3 mg/kg [3, 11]: 0%
O=C(/C=C/c1ccncc1)Nc1nn[nH]n1 [VAL 47-042, N-1H-tetrazol-5-yl-[3-(4-pyridyl)]-acrylamide trans isomer]	3.9	41.7	77.8	1.28	0	5.3	21.4	6.3	0	0.5	0	0	0	0						
O=C(/C=C/c1ccsc1)Nc1nn[nH]n1 [VAL 47-034, N-1H-tetrazol-5-yl-[3-(3-thienyl)]-acrylamide trans isomer]		1.3	48.6	4.74	0	0	53.4	64.5	36	41.9	6.9	0	25	2					63.5	
O=C(/C=C/c1cccnc1)Nc1nn[nH]n1 [VAL 47-017, N-1H-tetrazol-5-yl-[3-(3-pyridyl)]-acrylamide trans isomer]	45.7	71.6	93.9	0.36	21.7	22.8	48.3	45	7.3	1	0	0	0	0					100	
O=C(/C=C/c1ccccn1)Nc1nn[nH]n1 [VAL 47-055, N-1H-tetrazol-5-yl-[3-(2-pyridyl)]-acrylamide trans isomer]	5.6	47.5	85.9	1.54	28.3	52.9	81						0		22.5	7.94	5.15	0		inhibition in vivo at 10 mg/kg [3, 7]: 45.6%; inhibition in vivo at 10 mg/kg [3, 8]: 0.5%; inhibition in vivo at 10 mg/kg [3, 9]: 0%; inhibition in vivo at 10 mg/kg [3, 10]: 4.7%; inhibition in vivo at 10 mg/kg [3, 11]: 0%
Cc1ccc(/C=C/C(=O)Nc2nn[nH]n2)s1 [VAL 47-005Na, N-1H-tetrazol-5-yl-[3-[5-methyl-(2-thienyl)]] acrylamide sodium salt trans isomer]														0						inhibition (%) ([1]; i.v., 1 mg/kg, immediately before challenge): 16.5%; inhibition (%) ([1]; i.v., 3 mg/kg, immediately before challenge): 40.7%; inhibition (%) ([1]; i.v., 10 mg/kg, immediately before challenge): 78.0%; ED50 (conf. lim) P = 0.05 ([1]; i.v., immediately before challenge): 3.74 (2.89-4.85) mg/kg/iv; inhibition (%) ([2]; 3 mg/kg): 26.7%; inhibition (%) ([2]; 10 mg/kg): 54.7%; inhibition (%) ([2]; 30 mg/kg): 65.8%; mortality (%EAD) (mouse; oral, 1000 mg/kg/os): 0%
O=C(/C=C/c1ccc[nH]1)Nc1nn[nH]n1 [VAL 47-078, N-1H-tetrazol-5-yl-[3-(2-pyrrole)]-acrylamide trans isomer]		11.2	41.3	3.85	7.4	35.8	38.3	31.4	29.3	9	4.3	0.5	0	0					78.6	
